Literature values in patent US4181677A, “2-Benzoyl-3-alkoxy-2-alkenonitriles” (American Cyanamid Company, priority 1978, dated 1980).

System: joint and bone deterioration
Conditions: S. Wong et al. (1973); G. R. Bobalick et al. (1974)

## COc1ccc2c(c1)c(CC(=O)O)c(C)n2C(=O)c1ccc(Cl)cc1 [Indomethacin]
  prevention of joint and bone deterioration: prevent joint and bone deterioration
